Laboratory results published in patent US7423060B2, “Thiophene hydroxamic acid derivatives and their use as HDAC inhibitors” (Hoffman-La Roche Inc., priority 2004, dated 2008).

Test system: HT-29 cells
Assay: MTT assay on HT-29 human colon carcinoma cell line
Format: cell-based
Conditions: MTT assay after 5 days, compounds 30 μM to 1.5 nM, read-out: IC90 HT29
Description: To show the activity of the compounds according to this invention, their effects on a human colon carcinoma cell line was evaluated using a standard MTT-assay. MTT (3-(4,5-dimethylthiazol-2-yl)-2,5-diphenyl tetrazolium bromide) is widely used for the quantitative determination of cytotoxic effects or in vitro chemosensitivity of tumor cells. The assay is based on the cleavage of the yellow tetrazolium salt (MTT) to purple formazan crystals by metabolic active cells. For details, see Rubinstein, L. V., et al., J. Natl. Cancer Inst. 82 (1990) 1113-1118.
We proceeded as follows: HT-29 cells (human colon carcinoma cell line, ATCC-No. HTB-38) were cultivated in RPMI 1640 medium with GlutaMAX™ I (Invitrogen, Cat-No. 61870-010), 2.5% fetal calf serum (FCS, Sigma Cat-No. F4135 (FBS)), 2 mM glutamine, 100 units/ml penicillin, 100 μg/ml streptomycin (=Pen/Strep from Invitrogen Cat. No. 15140). For the assay the cells were seeded in 384 well plates, 900 cells per well, in the same medium. At the next day, the compounds (dissolved 10 mM in DMSO) were added in various concentrations ranging from 30 μM to 1.5 nM. After 5 days, the MTT assay was done mainly according to the instructions of the manufacturer (Cell proliferation kit I, MTT, from Roche Molecular Biochemicals). […] After careful mixing, the plates were measured in Victor 2 (scanning multiweil spectrophotometer, Wallac) at 550 nm. […]

Q: How did the IC90 turn out when `CC(NC(=O)c1ccc(C(=O)NO)s1)c1ccc(OCc2ccc(OC(F)(F)F)cc2)cc1` (stereo not shown) [Example 1-1, Thiophene-2,5-dicarboxylic acid 2-hydroxyamide 5-({1-[4-(4-trifluoromethoxy-benzyloxy)-phenyl]-ethyl}-amide)] was run?
A: Its IC90 is 690 nM.
